According to patent US9540299B2, “MTOR-independent activator of TFEB for autophagy enhancement and uses thereof” (Hong Kong Baptist University, priority 2015, dated 2017):

Test system: MTOR pathway
Assay: Effects on MTOR pathway: phosphorylation by western blot in N2a cells
Format: cell-based, mouse
Conditions: for phosphorylation of RPS6KB1/p70S6K and MTOR: 12 hours; for phosphorylation of RPS6KB1/p70S6K, MTOR and AKT: 12 h, curcumin 10 μM, analogs 1 μM
Description: N2a cells were treated with curcumin (Cur, 10 μM), A2, B3 and C1 (1 μM) for 12 h. Torin 1 (1 μM) treatment for 2 h was used as a positive control. […] FIG. 3B is a bar chart showing the expression of phosphorylated (p−) and total RPS6KB1/P70S6K, MTOR and AKT. Data are presented as the mean±SD from three independent experiments. *p<0.05 vs. the control (0.1% DMSO).
N2a cells are treated with E2, E3 and E4 (1 μM) for 12 hours. Torin 1 (1 μM) treatment for 2 hours is used as a positive control. The expression of phosphorylated (p−) and total RPS6KB1/P70S6K and MTOR are shown in Western blotting (FIG. 15A). The phosphorylation of RPS6KB1 and MTOR levels are also quantified (FIG. 15B). Data are presented as the mean±SD from three independent experiments. *p<0.05 vs. the control (0.1% DMSO).
N2a cells are treated with different concentrations of E4 (0-1 μM) and Torin 1 (1 μM) for 6 hours. The expression of phosphorylated (p−) and MTOR are detected by Western blotting (FIG. 23A). The phosphorylation of MTOR levels are also quantified (FIG. 23B). Data are presented as the mean±SD from three independent experiments. *p<0.05 vs. the control (0.1% DMSO).
N2a cells are treated with E4 (1 μM) for indicated times and Torin 1 (1 μM) for 6 hours. The expression of phosphorylated (p−) and total RPS6KB1/P70S6K and MTOR are detected by Western blotting (FIG. 24A). The phosphorylation of RPS6KB1 and MTOR levels are also quantified (FIG. 24B). Data are presented as the mean±SD from three independent experiments. *p<0.05 vs. the control (0.1% DMSO).
N2a, Hela and Hela cells stably expressing 3×-Flag-TFEB are cultured in DMEM supplemented with 10% FBS. SH-SY5Y cells are cultured in DMEM/F12 supplemented with 10% FBS. For drug treatment, the full medium is replaced by fresh Opti-MEM I and then the compounds (in 0.1% DMSO) are added to the cells and incubated for 12 h. Inducible PC12 cells overexpressing SNCA (WT and A53T) (a kind gift from Prof. David C. Rubinsztein at Cambridge University) are grown in DMEM supplemented with 10% horse serum, 5% FBS, 50 μg/ml G418, and 150 μg/ml hygromycin B at 37° C., 10% CO2. Cells are treated with 2 μg/ml doxycycline (Dox) for 24 h to induce SNCA expression. The full medium is changed to Opti-MEM I containing the testing compounds for another 48 h.
Cells are lysed on ice in 1× Lysis Buffer (9803, Life Technologies) with complete protease inhibitor mixture (04693124001, Roche Applied Science). Animal tissues are homogenized in nine volumes of ice-cold PBS supplemented with protease inhibitors. Cytosolic and nuclear fractions are isolated using protocols similar to those described previously. Anti-Flag or TFEB antibody is added to the whole cell lysates and Dynabeads® Protein G (10003D, Life Technologies) is used for immunoprecipitation. Proteins are separated by 10-15% SDS-PAGE, transferred, and blotted with the antibodies described. The blots are then incubated with secondary antibodies or the Clean-Blot IP Detection Reagent (21230, Thermo Scientific) at room temperature for 1 h. The protein signals are detected by ECL kit (32106, Pierce) and quantified using ImageJ software.
N2a and HeLa cells are cultured in DMEM supplemented with 10% FBS. HeLa cells stably expressing 3×-Flag-TFEB are maintained in DMEM supplemented with 10% FBS and 500 μg/mL G418. For drug treatment, the full medium is replaced by fresh Opti-MEM I containing the compounds (in 0.1% DMSO) and incubated for the indicated time periods.
Cells are lysed on ice in 1× Lysis Buffer (9803, Life Technologies) with complete protease inhibitor mixture (04693124001, Roche Applied Science) and phosphatase inhibitor (B15001, Biotool). Cytosolic and nuclear fractions are isolated using protocols similar to those described previously. Proteins are separated by 10-15% SDS-PAGE, transferred, and blotted with the antibodies described. The blots are then incubated with primary and secondary antibodies. […]

| SMILES | phosphorylation of RPS6KB1/p70S6K and MTOR (1 μM) | phosphorylation of RPS6KB1/p70S6K, MTOR and AKT | further results |
| --- | --- | --- | --- |
| O=C(/C=C/c1ccccc1I)/C=C/c1ccccc1I [E4] | significantly inhibit | – | phosphorylation of MTOR, dose-dependent (0-1 μM, 6 hours, dose-dependent manner): significantly inhibits; phosphorylation of both MTOR and p70S6K, time-dependent (1 μM, 0-6 hours, time-dependent manner): inhibits |
| COc1cc(/C=C/C(=O)CC(=O)/C=C/c2ccc(O)c(OC)c2)ccc1O [curcumin, Curcumin, reference compound] | – | inhibit | – |
| O=C(/C=C/c1ccccc1Cl)/C=C/c1ccccc1Cl [E2] | significantly inhibit | – | – |
| O=C(/C=C/c1ccc(O)cc1)/C=C/c1ccc(O)cc1 [B3, 1,5-bis(4-hydroxyphenyl)penta-1,4-dien-3-one] | – | inhibit | – |
| COc1ccccc1/C=C/C(=O)/C=C/c1ccccc1OC [C1, 1,5-bis(2-methoxyphenyl)penta-1,4-dien-3-one] | – | significantly promotes | – |
| O=C(/C=C/c1cccc(C(F)(F)F)c1)/C=C/c1cccc(C(F)(F)F)c1 [A2, 1,5-bis(3-(trifluoromethyl)phenyl)penta-1,4-dien-3-one] | – | inhibit | – |
| O=C(/C=C/c1ccccc1Br)/C=C/c1ccccc1Br [E3] | significantly inhibit | – | – |
